Results published in patent US20160287589A1, “SUBSTITUTED-IMIDAZOPYRIDAZINES” (BAYER PHARMA AKTIENGESELLSCHAFT, priority 2013, published 2016).
pIC50: −log10 of the molar value.

Assays:
MKNK1 [1] = target: T1, MKNK1 (Homo sapiens, UniProt Q9BUB5, T385D); assay: MKNK1 kinase assay (MKNK1 TR-FRET assay); assay type: biochemical; conditions: Table 1c; 10 μM ATP, 15 min preincubation
T1 construct: GST (N); purchased Carna Biosciences 02-145; host or cells: insect cells (baculovirus expression system)
T1 sequence (Q9BUB5 1-424 isoform Q9BUB5-2 T344D): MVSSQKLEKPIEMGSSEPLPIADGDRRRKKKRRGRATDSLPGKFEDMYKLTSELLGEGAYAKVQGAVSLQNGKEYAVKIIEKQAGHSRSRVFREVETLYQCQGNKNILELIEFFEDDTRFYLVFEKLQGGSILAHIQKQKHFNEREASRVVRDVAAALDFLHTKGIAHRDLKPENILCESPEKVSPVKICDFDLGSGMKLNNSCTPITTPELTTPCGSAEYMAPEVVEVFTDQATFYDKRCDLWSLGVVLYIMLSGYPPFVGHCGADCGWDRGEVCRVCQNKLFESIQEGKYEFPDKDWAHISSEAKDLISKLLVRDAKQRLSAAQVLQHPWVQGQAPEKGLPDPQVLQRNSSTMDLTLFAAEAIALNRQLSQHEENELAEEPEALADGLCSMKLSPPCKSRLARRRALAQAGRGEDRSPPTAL

MKNK1 [2] = target: T1, MKNK1; assay: MKNK1 kinase high ATP assay (TR-FRET-based); assay type: biochemical; conditions: Table 2c; 2 mM ATP, 15 min preincubation
Outline: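 TR-FRET read-out (anti-phospho-S6 Ser236 antibody, Eu/XL665) of biotin-peptide phosphorylation (0.06 μM) at high ATP (2 mM final). Enzyme was GST-MKNK1 full length, T344D, pre-bound to compound for 15 min before a 30 min reaction at 22 °C, pH 7.5. Inhibition scaled between no-inhibitor (0%) and no-enzyme (100%) wells.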

| pIC50 (MKNK1 [1]) | pIC50 (MKNK1 [2]) | SMILES |
| --- | --- | --- |
| 9.52 | 9.30 | COCCN(C)c1nccc2oc(-c3cnc4ccc(OC[C@H]5CCC(=O)N5)nn34)cc12 [III-81, (5R)-5-{[(3-{4-[(2-Methoxyethyl)(methyl)amino]furo[3,2-c]pyridin-2-yl}imidazo[1,2-b]pyridazin-6-yl)oxy]methyl}pyrrolidin-2-one] |
| 9.40 | 9.52 | CCCN(CCOC)c1nccc2oc(-c3cnc4ccc(OC[C@H]5CCC(=O)N5)nn34)cc12 [III-82, (5R)-5-{[(3-{4-[(2-Methoxyethyl)(propyl)amino]furo[3,2-c]pyridin-2-yl}imidazo[1,2-b]pyridazin-6-yl)oxy]methyl}pyrrolidin-2-one] |
| 7.94 | 7.72 | COC[C@@H]1CCCN1c1nccc2oc(-c3cnc4ccc(OC[C@H]5CCC(=O)N5)nn34)cc12 [III-83, (5R)-5-{[(3-{4-[(2S)-2-(Methoxymethyl)pyrrolidin-1-yl]furo[3,2-c]pyridin-2-yl}imidazo[1,2-b]pyridazin-6-yl)oxy]methyl}pyrrolidin-2-one] |
| 8.32 | 8.28 | C[C@@H]1COCCN1c1nccc2oc(-c3cnc4ccc(OC[C@@H]5CCC(=O)N5)nn34)cc12 [III-85, (5S)-5-{[(3-{4-[(3R)-3-Methylmorpholin-4-yl]furo[3,2-c]pyridin-2-yl}imidazo[1,2-b]pyridazin-6-yl)oxy]methyl}pyrrolidin-2-one] |
| 9.15 | 9.30 | CCN(CCOC)c1nccc2oc(-c3cnc4ccc(OC[C@@H]5CCC(=O)N5)nn34)cc12 [III-86, (S)-5-{[(3-{4-[Ethyl(2-methoxyethyl)amino]furo[3,2-c]pyridin-2-yl}imidazo[1,2-b]pyridazin-6-yl)oxy]methyl}pyrrolidin-2-one] |
| 8.54 | 8.10 | O=C1CNC[C@H](COc2ccc3ncc(-c4cc5c(N6CCOCC6)nccc5o4)n3n2)N1 [III-89, (6R)-6-[({3-[4-(Morpholin-4-yl)furo[3,2-c]pyridin-2-yl]imidazo[1,2-b]pyridazin-6-yl}oxy)methyl]piperazin-2-one] |
| 9.10 | 9.30 | CCN(CCOC)c1nccc2oc(-c3cnc4ccc(OC[C@H]5CNCC(=O)N5)nn34)cc12 [III-90, (6R)-6-{[(3-{4-[Ethyl(2-methoxyethyl)amino]furo[3,2-c]pyridin-2-yl}imidazo[1,2-b]pyridazin-6-yl)oxy]methyl}piperazin-2-one] |
| 8.08 | 7.74 | COc1ccc2ncc(-c3cc4c(N5CCN(c6ccccc6)CC5)nccc4o3)n2n1 [III-91, 6-Methoxy-3-[4-(4-phenylpiperazin-1-yl)furo[3,2-c]pyridin-2-yl]imidazo[1,2-b]pyridazine] |
| 8.49 | 8.11 | N[C@H]1C[C@H](Oc2ccc3ncc(-c4cc5c(N6CCOCC6)nccc5o4)n3n2)C1 [III-95, trans-3-({3-[4-(Morpholin-4-yl)furo[3,2-c]pyridin-2-yl]imidazo[1,2-b]pyridazin-6-yl}oxy)cyclobutanamine] |
| 8.41 | 8.47 | CN1CCN(c2nccc3oc(-c4cnc5ccc(O[C@H]6C[C@@H](N)C6)nn45)cc23)CC1 [III-96, cis-3-({3-[4-(4-Methylpiperazin-1-yl)furo[3,2-c]pyridin-2-yl]imidazo[1,2-b]pyridazin-6-yl}oxy)cyclobutanamine] |
| 8.25 | 7.68 | CN(CCCN1CCCC1)c1nccc2oc(-c3cnc4ccc(O[C@H]5C[C@H](N)C5)nn34)cc12 [III-97, 2-{6-[(trans-3-Aminocyclobutyl)oxy]imidazo[1,2-b]pyridazin-3-yl}-N-methyl-N-[3-(pyrrolidin-1-yl)propyl]furo[3,2-c]pyridin-4-amine] |
| 8.80 | 8.48 | CN(C)[C@@H]1CCN(c2nccc3oc(-c4cnc5ccc(O[C@H]6C[C@H](N)C6)nn45)cc23)C1 [III-98, (3R)-1-(2-{6-[(trans-3-Aminocyclobutyl)oxy]imidazo[1,2-b]pyridazin-3-yl}furo[3,2-c]pyridin-4-yl)-N,N-dimethylpyrrolidin-3-amine] |
| 7.61 | 7.34 | CC(C)(C)N1CCN(c2nccc3oc(-c4cnc5ccc(O[C@H]6C[C@H](N)C6)nn45)cc23)CC1 [III-99, trans-3-({3-[4-(4-tert-butylpiperazin-1-yl)furo[3,2-c]pyridin-2-yl]imidazo[1,2-b]pyridazin-6-yl}oxy)cyclobutanamine] |
| 9.10 | 8.92 | CCN(CCOC)c1nccc2oc(-c3cnc4ccc(O[C@H]5C[C@H](N)C5)nn34)cc12 [III-101, 2-{6-[(trans-3-Aminocyclobutyl)oxy]imidazo[1,2-b]pyridazin-3-yl}-N-ethyl-N-(2-methoxyethyl)furo[3,2-c]pyridin-4-amine] |
| 8.17 | 7.51 | N[C@H]1C[C@H](Oc2ccc3ncc(-c4cc5c(N6CCC[C@@H]6CO)nccc5o4)n3n2)C1 [III-102, [(2R)-1-(2-{6-[(trans-3-Aminocyclobutyl)oxy]imidazo[1,2-b]pyridazin-3-yl}furo[3,2-c]pyridin-4-yl)pyrrolidin-2-yl]methanol] |
| 8.04 | 7.73 | N[C@H]1C[C@H](Oc2ccc3ncc(-c4cc5c(N6CCNCC6)nccc5o4)n3n2)C1 [III-103, trans-3-({3-[4-(Piperazin-1-yl)furo[3,2-c]pyridin-2-yl]imidazo[1,2-b]pyridazin-6-yl}oxy)cyclobutanamine] |
| 7.73 | 7.21 | C[C@@H]1CN(c2nccc3oc(-c4cnc5ccc(O[C@H]6C[C@H](N)C6)nn45)cc23)C[C@H](C)O1 [III-104, trans-3-[(3-{4-[(2R,6S)-2,6-Dimethylmorpholin-4-yl]furo[3,2-c]pyridin-2-yl}imidazo[1,2-b]pyridazin-6-yl)oxy]cyclobutanamine] |
| 8.68 | 8.14 | CN(CCCO)c1nccc2oc(-c3cnc4ccc(O[C@H]5C[C@H](N)C5)nn34)cc12 [III-105, 3-[(2-{6-[(trans-3-Aminocyclobutyl)oxy]imidazo[1,2-b]pyridazin-3-yl}furo-[3,2-c]pyridin-4-yl)(methyl)amino]propan-1-ol] |
| 7.99 | 8.04 | N[C@H]1C[C@H](Oc2ccc3ncc(-c4cc5c(N6CCN(c7ccccc7)CC6)nccc5o4)n3n2)C1 [III-106, trans-3-({3-[4-(4-Phenylpiperazin-1-yl)furo[3,2-c]pyridin-2-yl]imidazo[1,2-b]pyridazin-6-yl}oxy)cyclobutanamine] |
| 8.32 | 7.93 | C[C@@H]1COCCN1c1nccc2oc(-c3cnc4ccc(O[C@H]5C[C@H](N)C5)nn34)cc12 [III-107, trans-3-[(3-{4-[(3R)-3-Methylmorpholin-4-yl]furo[3,2-c]pyridin-2-yl}imidazo[1,2-b]pyridazin-6-yl)oxy]cyclobutanamine] |
| 8.42 | 7.37 | CCN(CCOC)c1nccc2oc(-c3cnc4ccc(O[C@H]5Cc6ccccc6[C@@H]5N)nn34)cc12 [III-111, 2-(6-{[(1S,2S)-1-Amino-2,3-dihydro-1H-inden-2-yl]oxy}imidazo[1,2-b]pyridazin-3-yl)-N-ethyl-N-(2-methoxyethyl)furo[3,2-c]pyridin-4-amine] |
| 7.81 | 7.06 | CCN(CCOC)c1nccc2oc(-c3cnc4ccc(O[C@H]5Cc6ccccc6[C@H]5N)nn34)cc12 [III-112, 2-(6-{[(1R,2S)-1-Amino-2,3-dihydro-1H-inden-2-yl]oxy}imidazo[1,2-b]pyridazin-3-yl)-N-ethyl-N-(2-methoxyethyl)furo[3,2-c]pyridin-4-amine] |
| 9.30 | 9.52 | CCN(CCOC)c1nccc2oc(-c3cnc4ccc(OC[C@@H]5CNCC(=O)N5)nn34)cc12 [III-113, (6S)-6-{[(3-{4-[Ethyl(2-methoxyethyl)amino]furo[3,2-c]pyridin-2-yl}imidazo[1,2-b]pyridazin-6-yl)oxy]methyl}piperazin-2-one] |
| 7.98 | 7.63 | CN(C)[C@H]1CCN(c2nccc3oc(-c4cnc5ccc(OCCCS(C)(=O)=O)nn45)cc23)C1 [III-114, (3S)-N,N-dimethyl-1-(2-{6-[3-(methylsulfonyl)propoxy]imidazo[1,2-b]pyridazin-3-yl}furo[3,2-c]pyridin-4-yl)pyrrolidin-3-amine] |
| 7.73 | 7.08 | C[C@H](N)COc1ccc2ncc(-c3cc4c(N5CC[C@H](N(C)C)C5)nccc4o3)n2n1 [III-115, (3S)-1-[2-(6-{[(2S)-2-aminopropyl]oxy}imidazo [1,2-b]pyridazin-3-yl)furo[3,2-c]pyridin-4-yl]-N,N-dimethylpyrrolidin-3-amine] |
| 7.57 | 6.94 | C[C@H](N)COc1ccc2ncc(-c3cc4c(N5CCN(C(C)(C)C)CC5)nccc4o3)n2n1 [III-116, (2S)-1-({3-[4-(4-tert-butylpiperazin-1-yl)furo[3,2-c]pyridin-2-yl]imidazo[1,2-b]pyridazin-6-yl}oxy)propan-2-amine] |

| SMILES | pIC50 (MKNK1 [1]) | pIC50 (MKNK1 [2]) |
| --- | --- | --- |
| CN1CCC(N(C)c2nccc3oc(-c4cnc5ccc(O[C@H]6C[C@H](N)C6)nn45)cc23)CC1 [III-100, 2-{6-[(trans-3-Aminocyclobutyl)oxy]imidazo[1,2-b]pyridazin-3-yl}-N-methyl-N-(1-methylpiperidin-4-yl)furo[3,2-c]pyridin-4-amine] | 8.24 | 7.34 |
| CCN(CCOC(C)(C)C)c1nccc2oc(-c3cnc4ccc(O[C@H]5C[C@H](N)C5)nn34)cc12 [III-108, 2-{6-[(trans-3-Aminocyclobutyl)oxy]imidazo[1,2-b]pyridazin-3-yl}-N-(2-tert-butoxyethyl)-N-ethylfuro[3,2-c]pyridin-4-amine] | 8.72 | 9.30 |
